PubChem BioAssay (NCI)
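96-well plates; 48 h exposure; 5 concentrations. Endpoints by linear interpolation between flanking doses. Not reached: highest tested concentration assigned. TGI: concentration producing complete growth inhibition.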

Assays:
Experiment in all cases: DTP human tumour cell line panel, 48 h
KM12 colon = test system: KM12 colon
DU-145 prostate = test system: DU-145 prostate
MCF7 breast = test system: MCF7 breast
LOX IMVI melanoma = test system: LOX IMVI melanoma
SK-MEL-2 melanoma = test system: SK-MEL-2 melanoma
HCT-116 colon = test system: HCT-116 colon
NCI-H522 lung = test system: NCI-H522 lung
A549 NSCLC = test system: A549 NSCLC
OVCAR-5 ovarian = test system: OVCAR-5 ovarian
SK-MEL-5 melanoma = test system: SK-MEL-5 melanoma
COLO 205 colon = test system: COLO 205 colon
MALME-3M melanoma = test system: MALME-3M melanoma
HOP-92 NSCLC = test system: HOP-92 NSCLC
NCI-H23 lung = test system: NCI-H23 lung
OVCAR-8 ovarian = test system: OVCAR-8 ovarian
HCC-2998 colon = test system: HCC-2998 colon
SF-268 CNS = test system: SF-268 CNS
UACC-257 melanoma = test system: UACC-257 melanoma
HOP-62 NSCLC = test system: HOP-62 NSCLC
TK-10 renal = test system: TK-10 renal
NCI-H460 lung = test system: NCI-H460 lung
SF-295 CNS = test system: SF-295 CNS
OVCAR-4 ovarian = test system: OVCAR-4 ovarian
MDA-MB-435 = test system: MDA-MB-435
SK-MEL-28 melanoma = test system: SK-MEL-28 melanoma
EKVX NSCLC = test system: EKVX NSCLC
SNB-19 CNS = test system: SNB-19 CNS
CAKI-1 renal = test system: CAKI-1 renal
SR leukemia = test system: SR leukemia
UACC-62 melanoma = test system: UACC-62 melanoma
A498 renal = test system: A498 renal
MDA-N = test system: MDA-N
K-562 leukemia = test system: K-562 leukemia
ACHN renal = test system: ACHN renal
OVCAR-3 ovarian = test system: OVCAR-3 ovarian
SF-539 CNS = test system: SF-539 CNS
SNB-75 CNS = test system: SNB-75 CNS
HS 578T breast = test system: HS 578T breast
SW-620 colon = test system: SW-620 colon
HT29 colon = test system: HT29 colon
T-47D breast = test system: T-47D breast
SK-OV-3 ovarian = test system: SK-OV-3 ovarian
SN12C renal = test system: SN12C renal
HL-60(TB) leukemia = test system: HL-60(TB) leukemia
IGROV1 ovarian = test system: IGROV1 ovarian
PC-3 prostate = test system: PC-3 prostate
786-0 renal = test system: 786-0 renal
HCT-15 colon = test system: HCT-15 colon
U251 CNS = test system: U251 CNS
M14 melanoma = test system: M14 melanoma
NCI/ADR-RES ovarian = test system: NCI/ADR-RES ovarian
CCRF-CEM leukemia = test system: CCRF-CEM leukemia
UO-31 renal = test system: UO-31 renal
NCI-H226 lung = test system: NCI-H226 lung
RPMI-8226 leukemia = test system: RPMI-8226 leukemia
MOLT-4 leukemia = test system: MOLT-4 leukemia
RXF 393 renal = test system: RXF 393 renal
MDA-MB-231 breast = test system: MDA-MB-231 breast

For `CC1(C)CS(=O)(=O)CC(C)(C)C(=N/N)/C1=N\N`, the TGI (KM12 colon) was > 100 µM, the TGI (DU-145 prostate) was > 100 µM and the TGI (MCF7 breast) was > 100 µM. For the same molecule, the TGI (LOX IMVI melanoma) was > 100 µM, the TGI (SK-MEL-2 melanoma) was > 100 µM and the TGI (HCT-116 colon) was > 100 µM. For the same molecule, the TGI (NCI-H522 lung) was > 100 µM, the TGI (A549 NSCLC) was > 100 µM and the TGI (OVCAR-5 ovarian) was > 100 µM. For the same molecule, the TGI (SK-MEL-5 melanoma) was > 100 µM, the TGI (COLO 205 colon) was > 100 µM and the TGI (MALME-3M melanoma) was > 100 µM. The TGI (HOP-92 NSCLC) was > 100 µM, the TGI (NCI-H23 lung) was > 100 µM and the TGI (OVCAR-8 ovarian) was > 100 µM. For the same molecule, the TGI (HCC-2998 colon) was > 100 µM, the TGI (SF-268 CNS) was > 100 µM and the TGI (UACC-257 melanoma) was > 100 µM. The TGI (HOP-62 NSCLC) was > 100 µM, the TGI (TK-10 renal) was > 100 µM and the TGI (NCI-H460 lung) was > 100 µM. The TGI (SF-295 CNS) was > 100 µM, the TGI (OVCAR-4 ovarian) was > 100 µM and the TGI (MDA-MB-435) was > 100 µM. For the same molecule, the TGI (SK-MEL-28 melanoma) was > 100 µM, the TGI (EKVX NSCLC) was > 100 µM and the TGI (SNB-19 CNS) was > 100 µM. For the same molecule, the TGI (CAKI-1 renal) was > 100 µM, the TGI (SR leukemia) was > 100 µM and the TGI (UACC-62 melanoma) was > 100 µM. The TGI (A498 renal) was > 100 µM, the TGI (MDA-N) was > 100 µM and the TGI (K-562 leukemia) was > 100 µM. The TGI (ACHN renal) was > 100 µM, the TGI (OVCAR-3 ovarian) was > 100 µM and the TGI (SF-539 CNS) was > 100 µM. For the same molecule, the TGI (SNB-75 CNS) was > 100 µM, the TGI (HS 578T breast) was > 100 µM and the TGI (SW-620 colon) was > 100 µM. For the same molecule, the TGI (HT29 colon) was > 100 µM, the TGI (T-47D breast) was > 100 µM and the TGI (SK-OV-3 ovarian) was > 100 µM. For the same molecule, the TGI (SN12C renal) was > 100 µM, the TGI (HL-60(TB) leukemia) was > 100 µM and the TGI (IGROV1 ovarian) was > 100 µM. For the same molecule, the TGI (PC-3 prostate) was > 100 µM, the TGI (786-0 renal) was > 100 µM and the TGI (HCT-15 colon) was > 100 µM. The TGI (U251 CNS) was > 100 µM, the TGI (M14 melanoma) was > 100 µM and the TGI (NCI/ADR-RES ovarian) was > 100 µM.

`CNC(=O)OCc1c(COC(=O)NC)c(C)n(-c2ccc(Br)cc2)c1C` was tested, and the TGI (KM12 colon) was 30.8 µM, the TGI (DU-145 prostate) was 36.2 µM and the TGI (MCF7 breast) was 25.9 µM. The TGI (LOX IMVI melanoma) was 23.9 µM, the TGI (SK-MEL-2 melanoma) was 31 µM and the TGI (CCRF-CEM leukemia) was 48.2 µM. For the same molecule, the TGI (HCT-116 colon) was 25.8 µM, the TGI (NCI-H522 lung) was 25.9 µM and the TGI (A549 NSCLC) was 38.1 µM. The TGI (OVCAR-5 ovarian) was 77.2 µM, the TGI (SK-MEL-5 melanoma) was 28.1 µM and the TGI (COLO 205 colon) was 27.5 µM. It also gave a TGI (MALME-3M melanoma) of 36.3 µM, a TGI (HOP-92 NSCLC) of 31 µM and a TGI (NCI-H23 lung) of 35.4 µM. It also gave a TGI (OVCAR-8 ovarian) of 24.8 µM, a TGI (HCC-2998 colon) of 32.2 µM and a TGI (SF-268 CNS) of 34.5 µM. The TGI (UO-31 renal) was 19.5 µM, the TGI (UACC-257 melanoma) was 32.3 µM and the TGI (NCI-H226 lung) was 4.59 µM. The TGI (HOP-62 NSCLC) was 29.1 µM, the TGI (TK-10 renal) was 51.5 µM and the TGI (NCI-H460 lung) was 24.1 µM. For the same molecule, the TGI (SF-295 CNS) was 31.9 µM, the TGI (MDA-MB-435) was 34 µM and the TGI (SK-MEL-28 melanoma) was 35.2 µM. The TGI (EKVX NSCLC) was > 100 µM, the TGI (SNB-19 CNS) was 44.3 µM and the TGI (RPMI-8226 leukemia) was 31.6 µM. The TGI (CAKI-1 renal) was > 100 µM, the TGI (SR leukemia) was > 100 µM and the TGI (UACC-62 melanoma) was 18.5 µM. For the same molecule, the TGI (A498 renal) was 3.21 µM, the TGI (MDA-N) was 32 µM and the TGI (MOLT-4 leukemia) was > 100 µM. It also gave a TGI (RXF 393 renal) of 19.8 µM, a TGI (K-562 leukemia) of 95.1 µM and a TGI (ACHN renal) of 12.7 µM. It also gave a TGI (OVCAR-3 ovarian) of 30.4 µM, a TGI (SF-539 CNS) of 30.3 µM and a TGI (SNB-75 CNS) of 19.1 µM. The TGI (MDA-MB-231 breast) was 30.5 µM, the TGI (HS 578T breast) was 33.5 µM and the TGI (SW-620 colon) was 27.3 µM. For the same molecule, the TGI (HT29 colon) was 22.4 µM, the TGI (T-47D breast) was 54.9 µM and the TGI (SK-OV-3 ovarian) was 34.2 µM. The TGI (SN12C renal) was 32.8 µM, the TGI (HL-60(TB) leukemia) was 31.9 µM and the TGI (IGROV1 ovarian) was 19.1 µM. It also gave a TGI (PC-3 prostate) of 65.8 µM, a TGI (786-0 renal) of 27.8 µM and a TGI (HCT-15 colon) of 29.1 µM. The TGI (U251 CNS) was 25.5 µM, the TGI (M14 melanoma) was 32.5 µM and the TGI (NCI/ADR-RES ovarian) was 34.9 µM.
